Laboratory results as given in US8575127B2, “Antithrombotic diadenosine tetraphosphates and related analogs” (GLSynthesis Inc., priority 2008, dated 2013).

tested on: ADP-induced human platelet aggregation; assay: ADP-induced platelet aggregation in platelet-rich human plasma (optical aggregometry); format: cell-based; conditions: inhibition of 3 μM ADP-induced human platelet aggregation, average of 2 experiments
Experimental: Platelet aggregation was initiated by adding ADP (3 μM) in the presence or absence of various concentrations of test compound to platelet-rich human plasma, and the aggregation response was recorded for six minutes in a Chrono-log® aggregometer running the Aggro/Link software (Chrono-log®, Havertown, Pa.).

Compound	IC50 [µM]
CNc1ncnc2c1ncn2[C@@H]1O[C@H](COP(O)(=S)OP(=O)(O)C(Cl)P(=O)(O)OP(O)(=S)OC[C@H]2O[C@@H](n3cnc4c(NC)ncnc43)[C@H](O)[C@@H]2O)[C@@H](O)[C@H]1O (stereo partly shown) [Compound 8, P^1,P^4-bis(N^6-methyl-5′-adenosine)-P^1,P^4-dithio-P^2,P^3-monochloromethylenetetraphosphate]	3.52 ± 0.83
CNc1nc(SC)nc2c1ncn2C1OC(COP(O)(=S)OP(=O)(O)C(Cl)P(=O)(O)OP(O)(=S)OCC2OC(n3cnc4c(NC)nc(SC)nc43)C(O)C2O)C(O)C1O (stereo not shown) [Compound 22, P^1,P^4-bis(N^6-methyl-2-methylthio-5′-adenosine)-P^1,P^4-dithio-P^2,P^3-monochloromethylenetetraphosphate]	0.26
CCCNc1ncnc2c1ncn2C1OC(COP(O)(=S)OP(=O)(O)C(Cl)P(=O)(O)OP(O)(=S)OCC2OC(n3cnc4c(NCCC)ncnc43)C(O)C2O)C(O)C1O (stereo not shown) [Compound 12, P^1,P^4-bis-(N^6-propyl-5′-adenosine)-P^1,P^4-dithio-P^2,P^3-monochloromethylenetetraphosphate]	5.56 ± 1.7
Bis-adenosine tetraphosphate [Ap4A, reference compound]	9.8 ± 2.8
Nc1nc(Cl)nc2c1ncn2C1OC(COP(O)(=S)OP(=O)(O)C(Cl)P(=O)(O)OP(O)(=S)OCC2OC(n3cnc4c(N)nc(Cl)nc43)C(O)C2O)C(O)C1O (stereo not shown) [Compound 44, P^1,P^4-bis(2-chloro-5′-adenosine)-P^1,P^4-dithio-P^2,P^3-monochloromethylenetetraphosphate]	0.098 ± 0.004

The next compounds have a lower IC50 than those just listed; values first:

IC50 [µM]	Compound
0.089 ± 0.038	CSc1nc(N)c2ncn(C3OC(COP(=O)(O)OP(=O)(O)OP(=O)(O)OP(=O)(O)OCC4OC(n5cnc6c(N)nc(SC)nc65)C(O)C4O)C(O)C3O)c2n1 (stereo not shown) [Compound 2, tetrasodium P^1,P^4-bis-(2-methylthio-5′-adenosine)tetraphosphate]
0.05 ± 0.037	CSc1nc(N)c2ncn(C3OC(COP(O)(=S)OP(=O)(O)OP(=O)(O)OP(O)(=S)OCC4OC(n5cnc6c(N)nc(SC)nc65)C(O)C4O)C(O)C3O)c2n1 (stereo not shown) [Compound 10, P^1,P^4-bis-(2-methylthio-5′-adenosine)-P^1,P^4-dithiotetraphosphate]
0.021 ± 0.006	Nc1nc(I)nc2c1ncn2[C@@H]1O[C@H](COP(O)(=S)OP(=O)(O)C(Cl)P(=O)(O)OP(O)(=S)OC[C@H]2O[C@@H](n3cnc4c(N)nc(I)nc43)[C@H](O)[C@@H]2O)[C@@H](O)[C@H]1O (stereo partly shown) [Compound 40, P^1,P^1-bis-(2-iodo-5′-adenosine)-P^1,P^4-dithio-P^2, P^3-monochloromethylenetetraphosphate]
0.015 ± 0.01	CCCSc1nc(N)c2ncn([C@@H]3O[C@H](COP(O)(=S)OP(=O)(O)C(Cl)P(=O)(O)OP(O)(=S)OC[C@H]4O[C@@H](n5cnc6c(N)nc(SCCC)nc65)[C@H](O)[C@@H]4O)[C@@H](O)[C@H]3O)c2n1 (stereo partly shown) [Compound 32, P^1,P^4-bis(2-propylthio-5′-adenosine)-P^1,P^4-dithio-P^2,P^3-monochloromethylenetetraphosphate]
0.013 ± 0.01	CSc1nc(N)c2ncn(C3OC(COP(O)(=S)OP(=O)(O)C(Cl)P(=O)(O)OP(O)(=S)OCC4OC(n5cnc6c(N)nc(SC)nc65)C(O)C4O)C(O)C3O)c2n1 (stereo not shown) [Compound 17, P^1,P^4-bis-(2-methylthio-5′-adenosine)-P^1,P^4-dithio-P^2, P^3-monochloromethylenetetraphosphate]
